Data from patent publication US20260374782A1, “NEW COMPOUNDS, PROCESSES FOR PREPARING THE SAME AND THEIR USE AS DRUGS” (B&A ONCOMEDICAL, priority 2022, published 2026).

Biological target: T1, NKCC1 (Homo sapiens, UniProt P55011)
T1 construct: endogenous in cells; host or cells: native HEK293 cells
T1 sequence (P55011 1-1212): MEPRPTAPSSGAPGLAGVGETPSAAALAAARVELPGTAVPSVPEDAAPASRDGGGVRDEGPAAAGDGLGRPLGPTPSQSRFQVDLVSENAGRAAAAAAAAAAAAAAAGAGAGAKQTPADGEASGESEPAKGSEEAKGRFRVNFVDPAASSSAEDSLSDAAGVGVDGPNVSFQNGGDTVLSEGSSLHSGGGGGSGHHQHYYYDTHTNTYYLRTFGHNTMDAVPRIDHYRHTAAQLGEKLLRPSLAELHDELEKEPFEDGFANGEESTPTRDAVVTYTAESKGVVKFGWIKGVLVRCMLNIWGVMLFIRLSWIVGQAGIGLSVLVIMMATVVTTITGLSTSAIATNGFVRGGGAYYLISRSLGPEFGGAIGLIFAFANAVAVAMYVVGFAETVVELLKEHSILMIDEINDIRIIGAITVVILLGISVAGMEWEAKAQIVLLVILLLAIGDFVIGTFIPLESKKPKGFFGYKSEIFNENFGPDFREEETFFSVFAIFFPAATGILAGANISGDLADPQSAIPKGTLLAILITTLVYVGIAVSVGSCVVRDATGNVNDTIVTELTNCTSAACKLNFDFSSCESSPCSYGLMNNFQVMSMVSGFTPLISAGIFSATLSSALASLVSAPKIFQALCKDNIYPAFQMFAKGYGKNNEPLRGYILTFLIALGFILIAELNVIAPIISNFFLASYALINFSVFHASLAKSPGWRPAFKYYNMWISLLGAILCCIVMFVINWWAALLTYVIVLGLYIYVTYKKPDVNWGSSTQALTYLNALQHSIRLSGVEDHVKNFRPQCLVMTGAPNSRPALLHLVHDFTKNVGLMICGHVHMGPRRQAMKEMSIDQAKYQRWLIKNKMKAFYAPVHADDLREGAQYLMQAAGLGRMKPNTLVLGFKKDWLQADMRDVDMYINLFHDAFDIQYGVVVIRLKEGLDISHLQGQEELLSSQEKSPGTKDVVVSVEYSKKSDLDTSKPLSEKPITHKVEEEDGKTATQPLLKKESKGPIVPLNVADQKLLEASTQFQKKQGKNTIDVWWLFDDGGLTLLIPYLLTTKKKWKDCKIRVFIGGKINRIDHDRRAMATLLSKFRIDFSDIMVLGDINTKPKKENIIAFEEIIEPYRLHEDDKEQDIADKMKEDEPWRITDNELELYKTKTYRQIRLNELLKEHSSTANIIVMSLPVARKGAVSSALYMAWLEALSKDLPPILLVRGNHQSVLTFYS
Test: NKCC1-mediated K+ influx (83Rb tracer uptake) in native HEK293 cells, hypertonic saline, 100 μM ouabain
Type: cell-based
Conditions: HEK293, no drug = 1000, 20 μM bumetanide = 0; for inhibition at 20 µM: read-out: NKCC1 mediated flux inhibition at 20 μM (%); for inhibition at 2 µM: read-out: NKCC1 mediated flux inhibition at 2 μM (%)
Text: The compounds of the invention have been tested for evaluating their potency in inhibiting the NKCC1 channel. The test used is a cellular assay expressing the NKCC1 channel: HEK293 cells are human cells derived from embryonic kidney. The inhibitory activity of the compounds has been evaluated in measuring the modification of the potassium flux at 2 concentrations, as described hereafter in the biological protocol.
HEK293 cells are human cells derived from embryonic kidney. They express at their plasma membranes proteins that transport potassium (K^+). Among these proteins is the Na—K-2Cl cotransporter or NKCC1. This transporter contributes to 40-50% of K^+ influx into the cells. The remaining of K^+ transport is mediated by the Na^+/K^+-ATPase (also known as Na^+ pump or Na^+/K^+ pump), which also contributes some 40-50% of the influx basal flux of 5-10%, which is mainly due to K^+ channels (FIG. 1A). Thus, the HEK293 cell in culture is an ideal model to study the function of NKCC1 and test compounds that inhibits its transport.
The assay to measure NKCC1 function was optimized to obtain the next signal to noise ratio: • a. A slightly hypertonic saline was used to stimulate NKCC1 function. […] By consistent use of this simple manipulation, the NKCC1 signal was enhanced. • b. Ouabain, an inhibitor of the Na^+/K^+ pump, was used at 100 μM. […] A radioactive isotope was used to trace the inward movement of K^+ into the cell (influx). This allowed for highly precise measurements of K^+ influx. Because radioactive isotopes of K^+ had very short half-lives, radioactive isotopes of Rb^+ were used. Rubidium was a monovalent cation which was readily transporter at the K^+ binding site by many transporters and channels. Rb^+ was a congener of K^+, being transported undistinguishably from K^+. ^83Rb (half-life of 83 days) was used since ^86Rb (half-life of 19.6 days) is no longer commercially available. The ^83Rb isotope was used as a tracer, i.e. at a very low amounts to trace the movement of K^+.
K^+ influx measured in native HEK293 was in the range of 7000-9000 pmoles K^+ per mg protein per min. In the presence of 20 μM Ref 1, the flux was reduced to 600-900 pmoles K^+ per mg protein per min. Thus, there was a very solid dynamic range. In each experiment, the flux without Ref 1 was set at 1000 (equivalent to 100.0%) and the flux with 20 μM bumetanide was set at 0 (equivalent to 0%).
For the flux experiments, 35-mm culture dishes were coated with 0.1 mg/mL poly-L-lysine and placed in large 20×20 [square] dishes. For convenience, the poly-L-lysine was placed in the dishes the day before the experiment. Before plating the cells, the poly-L-lysine was aspirated, and each dish washed twice with 1 mL sterile water. Cells from 3 confluent 10-cm dishes were detached with trypsin and resuspended into 49 mL complete medium. Cells (2 mL/35-mm dish) were plated in 24 dishes and allowed to attach for at least 2 hours prior to the flux. This setup allowed the measurement of 8 conditions in triplicates. For the flux, culture medium was aspirated and replaced with 1 mL saline for a preincubation period of 15 min. The saline was aspirated and replaced with 1 mL identical saline containing 0.25 μCi/mL 83Rb for 15 min. Following the uptake period, the radioactive solution was aspirated, and the cells washed 3 times with ice-cold saline. Cells were then lyzed with 500 μl 0.25N NaOH for 1 hour, neutralized with 250 μL glacial acetic acid and 300 μL and 30 μL aliquots were used for μ-scintillation counting and protein assays, respectively. Two 5 μL of each flux solution was used to determine cpm and relate those cpm to nmoles K^+. Potassium influx was expressed in nmoles K^+ per mg protein per min. Note that within an experiment, groups of 3 dishes were separated 2 min apart for easy handling. Also note that since all dishes were plated with a homogeneous cell suspension, and all dishes were identical, the protein content was measured from a subset of dishes. […]

## CCCCNc1cc(C(=O)OC)cc(S(=N)(=O)N(C)CC)c1Oc1ccccc1 (stereo not drawn) [Compound 5, methyl 3-(butylamino)-5-[[ethyl(methyl)amino]sulfonimidoyl]-4-phenoxy-benzoate]
  inhibition at 20 µM: 50 to 75%

## CCCCNc1cc(C(=O)OC)cc(S(=N)(=O)N2CCOCC2)c1Oc1ccccc1 (stereo not drawn) [Compound 6, methyl 3-(butylamino)-5-(morpholinosulfonimidoyl)-4-phenoxy-benzoate]
  inhibition at 2 µM: 10 to 30%
  inhibition at 20 µM: 30 to 50%

## CCCCNc1cc(C(=O)OC)cc(S(=N)(=O)Nc2ccccc2)c1Oc1ccccc1 (stereo not drawn) [Compound 7, methyl 3-(anilinosulfonimidoyl)-5-(butylamino)-4-phenoxy-benzoate]
  inhibition at 2 µM: 10 to 30%
  inhibition at 20 µM: 50 to 75%

## CCCCNc1cc(C(=O)OC)cc(S(=N)(=O)NCc2ccccc2)c1Oc1ccccc1 (stereo not drawn) [Compound 8, methyl 3-[(benzylamino)sulfonimidoyl]-5-(butylamino)-4-phenoxy-benzoate]
  inhibition at 2 µM: 10 to 30%
  inhibition at 20 µM: 50 to 75%

## CCCCNc1cc(C(=O)OC)cc(S(=N)(=O)NCCOC)c1Oc1ccccc1 (stereo not drawn) [Compound 9, methyl 3-(butylamino)-5-[(2-methoxyethylamino)sulfonimidoyl]-4-phenoxy-benzoate]
  inhibition at 20 µM: 10 to 30%

## CCCCNc1cc(C(=O)OC)cc(S(=N)(=O)NC2CC2)c1Oc1ccccc1 (stereo not drawn) [Compound 10, methyl 3-(butylamino)-5-[(cyclopropylamino)sulfonimidoyl]-4-phenoxy-benzoate]
  inhibition at 20 µM: 10 to 30%

## CCCCNc1cc(C(=O)OC)cc(S(=N)(=O)N2CCCCCC2)c1Oc1ccccc1 (stereo not drawn) [Compound 11, methyl 3-(azepan-1-ylsulfonimidoyl)-5-(butylamino)-4-phenoxy-benzoate]
  inhibition at 20 µM: 50 to 75%

## CCCCNc1cc(C(=O)OC)cc(S(=N)(=O)NCC2CCCCC2)c1Oc1ccccc1 (stereo not drawn) [Compound 12, methyl 3-(butylamino)-5-[(cyclohexylmethylamino)sulfonimidoyl]-4-phenoxy-benzoate]
  inhibition at 2 µM: 10 to 30%
  inhibition at 20 µM: 30 to 50%

## CCCCNc1cc(C(=O)OC)cc(S(=N)(=O)NCC2CCOCC2)c1Oc1ccccc1 (stereo not drawn) [Compound 13, methyl 3-(butylamino)-4-phenoxy-5-[(tetrahydropyran-4-ylmethylamino)sulfonimidoyl]benzoate]
  inhibition at 20 µM: 10 to 30%

## CCCCNc1cc(C(=O)OC)cc(S(=N)(=O)N(C)c2ccccc2)c1Oc1ccccc1 (stereo not drawn) [Compound 14, methyl 3-(butylamino)-5-[(N-methylanilino)sulfonimidoyl]-4-phenoxy-benzoate]
  inhibition at 2 µM: 10 to 30%
  inhibition at 20 µM: 10 to 30%

## CCCCNc1cc(C(=O)OC)cc(S(=N)(=O)NCc2cncnc2)c1Oc1ccccc1 (stereo not drawn) [Compound 15, methyl 3-(butylamino)-4-phenoxy-5-[(pyrimidin-5-ylmethylamino)sulfonimidoyl]benzoate]
  inhibition at 2 µM: 30 to 50%
  inhibition at 20 µM: 30 to 50%

## CCCCNc1cc(C(=O)OC)cc(S(=N)(=O)Nc2cccnc2)c1Oc1ccccc1 (stereo not drawn) [Compound 16, methyl 3-(butylamino)-4-phenoxy-5-[(3-pyridylamino)sulfonimidoyl]benzoate]
  inhibition at 2 µM: 30 to 50%
  inhibition at 20 µM: 10 to 30%

## CCCCNc1cc(C(=O)OC)cc(S(=N)(=O)Nc2cccc(OC)c2)c1Oc1ccccc1 (stereo not drawn) [Compound 17, methyl 3-(butylamino)-5-[(3-methoxyanilino)sulfonimidoyl]-4-phenoxy-benzoate]
  inhibition at 2 µM: 10 to 30%
  inhibition at 20 µM: 30 to 50%

## CCCCNc1cc(C(=O)OC)cc(S(=N)(=O)N2CCC(c3ccccc3)CC2)c1Oc1ccccc1 (stereo not drawn) [Compound 18, methyl 3-(butylamino)-4-phenoxy-5-[(4-phenyl-1-piperidyl)sulfonimidoyl]benzoate]
  inhibition at 2 µM: 30 to 50%
  inhibition at 20 µM: 10 to 30%

## CCCCNc1cc(C(=O)OC)cc(S(=N)(=O)N2CCc3ccccc32)c1Oc1ccccc1 (stereo not drawn) [Compound 19, methyl 3-(butylamino)-5-(indolin-1-ylsulfonimidoyl)-4-phenoxy-benzoate]
  inhibition at 2 µM: 30 to 50%
  inhibition at 20 µM: 10 to 30%

## CCCCNc1cc(C(=O)OC)cc(S(=N)(=O)N2CC3CCC(C2)O3)c1Oc1ccccc1 (stereo not drawn) [Compound 20, methyl 3-(butylamino)-5-(8-oxa-3-azabicyclo[3.2.1]octan-3-ylsulfonimidoyl)-4-phenoxy-benzoate]
  inhibition at 20 µM: 10 to 30%

## CCCCNc1cc(C(=O)OC)cc(S(=N)(=O)Nc2ccn(C)n2)c1Oc1ccccc1 (stereo not drawn) [Compound 21, methyl 3-(butylamino)-5-[[(1-methylpyrazol-3-yl)amino]sulfonimidoyl]-4-phenoxy-benzoate]
  inhibition at 2 µM: 10 to 30%
  inhibition at 20 µM: 30 to 50%

## CCCCNc1cc(C(=O)OC)cc(S(=N)(=O)Nc2cccc(Cl)c2)c1Oc1ccccc1 (stereo not drawn) [Compound 22, methyl 3-(butylamino)-5-[(3-chloroanilino)sulfonimidoyl]-4-phenoxy-benzoate]
  inhibition at 2 µM: 30 to 50%
  inhibition at 20 µM: 30 to 50%

## CCCCNc1cc(C(=O)OC)cc(S(=N)(=O)NCc2cccc(Cl)c2)c1Oc1ccccc1 (stereo not drawn) [Compound 23, methyl 3-(butylamino)-5-[[(3-chlorophenyl)methylamino]sulfonimidoyl]-4-phenoxy-benzoate]
  inhibition at 2 µM: 30 to 50%
  inhibition at 20 µM: 10 to 30%

## CCCCNc1cc(C(=O)OC)cc(S(=N)(=O)N2Cc3ccccc3C2)c1Oc1ccccc1 (stereo not drawn) [Compound 24, methyl 3-(butylamino)-5-(isoindolin-2-ylsulfonimidoyl)-4-phenoxy-benzoate]
  inhibition at 2 µM: 10 to 30%
  inhibition at 20 µM: 30 to 50%

## CCCCNc1cc(C(=O)OC)cc(S(=N)(N)=O)c1Oc1ccccc1 (stereo not drawn) [Compound 25, methyl 3-(aminosulfonimidoyl)-5-(butylamino)-4-phenoxy-benzoate]
  inhibition at 2 µM: 30 to 50%
  inhibition at 20 µM: 30 to 50%
